We go through 1 compound from paper PMC7297445, “Pharmacokinetic/Pharmacodynamic Determination and Preclinical Pharmacokinetics of the β-Lactamase Inhibitor ETX1317 and Its Orally Available Prodrug ETX0282” (ACS Infectious Diseases, 2020).

Broadly, the MIC is the least concentration at which growth counts as inhibited. As usually defined, the AUC is concentration integrated over time. High values mean high exposure, low ones low exposure. By Cmax is commonly meant the peak of the concentration-time curve. One may read the half-life as the time in which the quantity being followed falls by half. Low readings indicate fast loss, high ones slow loss. As a reminder, the Vd is a proportionality between amount in the body and measured concentration, not a real space.

In one data set the test system is E. coli NMC101. Description: MIC, broth microdilution (CLSI). Format: cell-based. The following applies: Escherichia coli, combination at 1:2 ratio cefpodoxime:ETX1317, MIC of CPD. As to the method:
MICs were determined utilizing a 1:2 ratio of cefpodoxime:ETX1317. […] The isolates utilized in the present study (Table 1) were broadly insensitive to CPD, presumably due to the presence of ESBLs and carbapenemases expressed in these strains. The addition of ETX1317 restored CPD activity to ≤1 μg/mL across all the tested isolates.
The MIC of each isolate was determined using the broth microdilution method following CLSI guidelines of document M07-A7 (CLSI M07-A7).

Data set [1] in a line: Intravenous pharmacokinetics of ETX1317. Format: in vivo, rat. Conditions: i.v. 10 mg/kg. As to the method:
Intravenous pharmacokinetics of ETX1317 investigated in jugular vein cannulated male Sprague–Dawley rats (Charles River Laboratories, n = 3/route) at a dose of 10 mg/kg formulated in 0.9% saline. Oral pharmacokinetics of ETX0282 was evaluated at a 10 mg/kg equivalent dose of ETX1317 formulated in 25:75 PEG 400:WFI. The pH of each formulation was verified to fall within a range of 4–7 and were confirmed to be in solution prior to dosing. Potency was verified by LC/MS/MS. Dose volumes were 5 and 10 mL/kg for ETX1317(i.v.) and ETX0282(p.o.), respectively for rats. In both dog (male, 3/route) and monkey (male, 3/route) studies, i.v. and p.o. doses were formulated on 25:75 PEG 400:WFI (pH ∼5) and administered at a dose of ∼1 mg/kg. Dose volume was 1 mL/kg for both routes in dogs and monkeys with the i.v. dose infused over 15 min. For oral doses, gavage tubes were flushed with 10 mL after administration of the dose. i.v. doses were sterile-filtered through 0.22 μm PVDF membrane prior to administration into the cephalic vein.
Blood samples to be processed for plasma using K2EDTA as an anticoagulant were taken at 0.08, 0.17, 0.25, 0.5, 1, 2, 4, and 8 h (i.v.) and 0.25, 0.5, 1, 2, 4, 8, and 24 h (p.o.) post dose in rats. Blood samples collected into 0.5 mL BD microtainers containing 1.0 mg K2EDTA were centrifuged in a microfuge for 10 min, plasma pipetted to 96 well cryo tubes, and stored at −80 °C prior to analysis.
Urine collection was collected directly into Nalgene bottles placed under metabolism cages with frozen ice packs to chill urine over the collection interval. Urine was collected 0–12, and 12–24 h post-dose. Following collection of each urine sample, the total urine weight was recorded and 3 mL aliquots were retained for LC/MS/MS analysis.
Non-compartmental analysis of time vs concentration data for ETX1317, ETX0282, CPD, and CPDP was completed using WinNonlin 8.1 (Pharsite Corporation, Mountain View CA). The maximum concentration (Cmax) was the highest observed concentration; Tmax was the earliest time at which Cmax occurred; and the elimination half-life was estimated as ln 2/kel, where kel is the elimination rate constant derived from the slope of the log concentration versus time profile. The area under the concentration–time curve from 0 h to the last time point (AUC0-tlast) was calculated by linear trapezoidal approximation. Clearance (CL) was estimated as Dose/AUC0-tlast and the steady state volume of distribution (Vd,ss) was estimated as CL* MRT, where MRT = AUMC/AUC (MRT = mean residence time and AUMC = area under the moment curve). Oral bioavailability (F) was determined from ETX1317 concentrations and normalizing doses to free acid equivalence, where F = AUCp.o.*(dosei.v.)/AUCi.v.*(dosep.o.).

A short description of another data set: Plasma protein binding. The class given is in vitro ADME, mouse. As to the method: Plasma protein binding was determined by rapid equilibrium dialysis. Plasma was freshly prepared from blood samples drawn in to EDTA (anticoagulant) containing tubes. Plasma was prepared using a table-top centrifuge and spun per instruction of the tube manufacturer and specifications (Beckton, Dickinson and Company, Franklin Lakes, NJ) and placed on ice prior to use.
Pooled plasma samples were centrifuged at 2000 rpm (approximately 1400g) for 15 min at 4 °C to remove debris. Approximately 90% of the clear supernatant fraction was transferred to a separate tube. Samples (500 μL) were then spiked with a 100× stock solution 100 μM, 0.5 mM, and 10 mM ETX1317 in DMSO respectively for 1, 5, and 100 μM final concentrations, transferred to the top of the filter chambers, and allowed to equilibrate for 15 min prior to centrifugation. The filtrate tubes were centrifuged at 14000g for 15 min at 4 °C. Next, 50 μL of the filtrate was precipitated with 300 μL of acetonitrile containing 250 ng/mL of carbutamide as the internal standard and the samples were analyzed by LC/MS/MS analysis.

Setting [2] is: male, Sprague-Dawley, rat, plasma, iv.

Each structure is given as a SMILES string. Where two headings read alike, the source gives them in different places.

With `CC1=C[C@@H](C(N)=O)N2C[C@@H]1N(O[C@H](F)C(=O)O)C2=O` [ETX1317], the MIC in the data set with E. coli NMC101 stood at 1 µg/mL. Also, the CL in data set [1] (10 mg/kg) was 23.1 ± 1.1 mL/min/kg. For the same compound, the clearance amounted to 23 mL/min/kg in data set [1] (male, Sprague-Dawley, rat, plasma, iv, 10 mg/kg, read-out: CL); 13.4 ± 0.3 mL/min/kg in data set [1] (male, Sprague-Dawley, rat, urine and plasma, iv, 10 mg/kg, read-out: renal CL). The exposure (AUC) in data set [1] (setting [2]) turned out to be 7190 ± 340 ng·h/mL. The compound further had a peak concentration (Cmax) in data set [1] (setting [2]) of 17500 ± 2000 ng/mL. Moreover, the half-life in data set [1] (setting [2]) was 24 ± 1.2 min. Moreover, in data set [1] (male, Sprague-Dawley, rat, plasma, iv, read-out: Vd,ss), the distribution volume (Vd) was 0.7 ± 0.01 L/kg. Besides, the Proportion unbound in “Plasma protein binding” (1 µM) is listed as 88%; in “Plasma protein binding” (5 µM), 100%; in “Plasma protein binding” (100 µM), 90%. In addition, the fraction unbound at 15 min in “Plasma protein binding” (mouse plasma, read-out: percent unbound) amounted to 0.93.
